# Source: patent US9376424B2, “Methods for treating post traumatic stress disorder” (AZEVAN PHARMACEUTICALS, INC., priority 2010, dated 2016)
# Target: T1, V1b receptor (Homo sapiens, UniProt P47901)
# T1 construct: expressed in transfected cells; host or cells: CHO-K1 (ATCC), vector PCI-neo
# T1 sequence (P47901 1-424): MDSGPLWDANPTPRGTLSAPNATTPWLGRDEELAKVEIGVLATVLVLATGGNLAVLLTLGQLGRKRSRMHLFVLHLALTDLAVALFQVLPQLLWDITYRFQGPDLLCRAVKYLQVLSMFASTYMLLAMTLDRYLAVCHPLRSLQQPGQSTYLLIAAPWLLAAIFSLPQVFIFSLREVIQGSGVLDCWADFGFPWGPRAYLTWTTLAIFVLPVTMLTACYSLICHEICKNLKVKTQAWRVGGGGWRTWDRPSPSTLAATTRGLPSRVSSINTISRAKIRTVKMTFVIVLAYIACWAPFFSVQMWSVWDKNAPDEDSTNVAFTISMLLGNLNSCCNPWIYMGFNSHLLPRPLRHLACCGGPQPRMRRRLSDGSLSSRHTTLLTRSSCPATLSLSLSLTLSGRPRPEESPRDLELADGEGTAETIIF
# Assay: Human or rat vasopressin V1b cell-based receptor binding assay
# Details: selectivity table; read-out: inhibition data (Ki, nM), Receptor V1b
# Source text: Human vasopression V1b receptor-expressing cells. Human vasopressin receptor 1b (hV1b) cDNA (see, Lolait et al., “Extrapituitary expression of the rat V1b vasopressin receptor gene” Proc. Natl. Acad. Sci. USA. 92:6783-7 (1995); de Keyzer et al., “Cloning and characterization of the human V3(V1b) pituitary vasopressin receptor” FEBS Lett. 356:215-20 (1994); Sugimoto et al., “Molecular cloning and functional expression of a cDNA encoding the human V1b vasopressin receptor” J. Biol. Chem. 269:27088-92 (1994)) was inserted into a mammalian cell expression vector PCI-neo (Promega) at EcoR1 site. The recombinant plasmid carrying hV1b cDNA was identified from transformed E. Coli clones and used for the transfection of Chinese hamster ovary cell (CHO-K1, ATCC). Two micrograms of hV1b receptor DNA was introduced into 10^5 CHO cells cultured in 6-well plate, using Fugene-6 mediated transfection technique (Boehringer Mannheim). Twenty-four hrs post transfection, Cells were then cultured under selection of G-418 (0.25 mg/ml) supplemented to the culture medium. Three days later, limited dilution was carried out to obtain single cell clones in 96-well plates. […]
# Human or rat vasopression V1b cell-based receptor binding assay. […] Samples were counted in a liquid scintillation counter (Beckman LS3801). IC50 and Ki values were calculated using Prism Curve fitting software. […]
structure (smiles),measurement,value
"CN(Cc1cccc(C(F)(F)F)c1)C(=O)[C@@H](CC(=O)N1CCC(N2CCCCC2)CC1)N1C(=O)[C@@H](N2C(=O)OC[C@@H]2c2ccccc2)[C@H]1C=Cc1ccccc1 [Example 225, 2(R)-[[4-(Piperidinyl)piperidinyl]carbonylmethyl]-2-[3(S)-(4(S)-phenyloxazolidin-2-on-3-yl)-4(R)-(2-styryl)azetidin-2-on-1-yl]acetic acid N-methyl-N-(3-trifluoromethylbenzyl)amide]",Ki,> 1000 nM
